The test system of experiment [1] is HCV genotype 1a (H77 strain) replicon in HUH-7 cells. As to the kind of experiment: HCV replicon luciferase reporter assay, genotype 1a. As to conditions: Hepatitis C virus, Huh-7, 72 h, HCV genotype 1a replicon luciferase, 3 days incubation. Type of experiment: cell-based. A digest of the protocol:
(§1)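 Replicon inhibition for both genotypes was measured as Renilla luciferase signal (EnduRen, 7.5 μM final, 2 h) after 3-day, 37° C exposure of replicon-bearing HUH-7 cells in 4% FCS DMEM, 0.5% DMSO. The 1b construct carries S1179I; the 1a H77 construct carries P1496L and S2204I. Twenty-point, 3-fold dilutions were fitted four-parametrically for EC50, and CC50 was taken from multiplexed Cell Titer-Blue.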
(In general: Replicon systems follow genome replication, usually without infectious particles.)

For experiment [2], the system named is HCV genotype 1b (Con1) replicon in HUH-7 cells. The experiment is described as follows: HCV replicon luciferase reporter assay, genotype 1b. As to conditions: Hepatitis C virus, Huh-7, 72 h, HCV genotype 1b replicon luciferase, 3 days incubation. Type of experiment: cell-based. In outline:
as §1

The structures appear in SMILES notation. Read-outs that look alike come from different tables or passages of the source.

With `CCOc1nnc(O[C@@H]2C[C@H]3C(=O)N[C@]4(C(=O)NS(=O)(=O)C5(C)CC5)C[C@H]4/C=C\CC[C@H](C)C[C@@H](CC)[C@H](NC(=O)OC(C)(C)C(C)(F)F)C(=O)N3C2)c2ccccc12` [Compound 5050, 3,3-difluoro-2-methylbutan-2-yl((2R,6S,7R,9S,13aS,14aR,16aS,Z)-2-((4-ethoxyphthalazin-1-yl)oxy)-7-ethyl-9-methyl-14a-(((1-methylcyclopropyl)sulfonyl)carbamoyl)-5,16-dioxo-1,2,3,5,6,7,8,9,10,11,13a,14,14a,15,16,16a-hexadecahydrocyclopropa[e]pyrrolo[1,2-a][1,4]diazacyclopentadecin-6-yl)carbamate], the EC50 (usually the midpoint of the concentration-response curve) in experiment [1] (read-out: LE_1a (EC50, range)) lay within 4.82 to 103 nM; in experiment [2] (read-out: LE_1b (EC50, range)), 4.82 to 103 nM.

Regarding `CCOc1nnc(O[C@@H]2C[C@H]3C(=O)N[C@]4(C(=O)NS(=O)(=O)C5(C)CC5)C[C@H]4/C=C\CC[C@@H](C)C[C@@H](CC)[C@H](NC(=O)OC(C)(C)C(C)(F)F)C(=O)N3C2)c2ccccc12` [Compound 5051, 3,3-difluoro-2-methylbutan-2-yl((2R,6S,7R,9R,13aS,14aR,16aS,Z)-2-((4-ethoxyphthalazin-1-yl)oxy)-7-ethyl-9-methyl-14a-(((1-methylcyclopropyl)sulfonyl)carbamoyl)-5,16-dioxo-1,2,3,5,6,7,8,9,10,11,13a,14,14a,15,16,16a-hexadecahydrocyclopropa[e]pyrrolo[1,2-a][1,4]diazacyclopentadecin-6-yl)carbamate], the EC50 in experiment [1] (read-out: LE_1a (EC50, range)) was less than 5.46 nM; in experiment [2] (read-out: LE_1b (EC50, range)) it was less than 5.46 nM.

On to `CCn1nc(O[C@@H]2C[C@H]3C(=O)N[C@]4(C(=O)NS(=O)(=O)C5(C)CC5)C[C@H]4/C=C\CC[C@H](C)C[C@@H](C)[C@H](NC(=O)OC(C)(C)C(F)(F)F)C(=O)N3C2)c2ccccc2c1=O` [Compound 5052, 1,1,1-trifluoro-2-methylpropan-2-yl((2R,6S,7R,9S,13aS,14aR,16aS,Z)-2-((3-ethyl-4-oxo-3,4-dihydrophthalazin-1-yl)oxy)-7,9-dimethyl-14a-(((1-methylcyclopropyl)sulfonyl)carbamoyl)-5,16-dioxo-1,2,3,5,6,7,8,9,10,11,13a,14,14a,15,16,16a-hexadecahydrocyclopropa[e]pyrrolo[1,2-a][1,4]diazacyclopentadecin-6-yl)carbamate], for which the EC50 in experiment [1] (read-out: LE_1a (EC50)) was 330 nM; in experiment [1] (read-out: LE_1a (EC50, range)) it was greater than 87.4 nM; in experiment [2] (read-out: LE_1b (EC50)) it was 76.2 nM; in experiment [2] (read-out: LE_1b (EC50, range)) it was 4.82 to 103 nM.

Turning to `CCn1nc(O[C@@H]2C[C@H]3C(=O)N[C@]4(C(=O)NS(=O)(=O)C5(C)CC5)C[C@H]4/C=C\CC[C@@H](C)C[C@@H](C)[C@H](NC(=O)OC(C)(C)C(F)(F)F)C(=O)N3C2)c2ccccc2c1=O` [Compound 5053, 1,1,1-trifluoro-2-methylpropan-2-yl((2R,6S,7R,9R,13aS,14aR,16aS,Z)-2-((3-ethyl-4-oxo-3,4-dihydrophthalazin-1-yl)oxy)-7,9-dimethyl-14a-(((1-methylcyclopropyl)sulfonyl)carbamoyl)-5,16-dioxo-1,2,3,5,6,7,8,9,10,11,13a,14,14a,15,16,16a-hexadecahydrocyclopropa[e]pyrrolo[1,2-a][1,4]diazacyclopentadecin-6-yl)carbamate], the EC50 in experiment [1] (read-out: LE_1a (EC50, range)) is 4.82 to 103 nM; in experiment [2] (read-out: LE_1b (EC50, range)), less than 5.46 nM.

For the molecule `[2H]C([2H])([2H])C(OC(=O)N[C@@H]1C(=O)N2C[C@H](Oc3nn(CC)c(=O)c4ccccc34)C[C@H]2C(=O)N[C@]2(C(=O)NS(=O)(=O)C3(C)CC3)C[C@H]2/C=C\CC[C@H](C)C[C@H]1C)(C([2H])([2H])[2H])C(F)(F)F` [Compound 5054], the EC50 in experiment [1] (read-out: LE_1a (EC50, range)) was greater than 87.4 nM; in experiment [2] (read-out: LE_1b (EC50, range)) it was greater than 87.4 nM.

With `[2H]C([2H])([2H])C(OC(=O)N[C@@H]1C(=O)N2C[C@H](Oc3nn(CC)c(=O)c4ccccc34)C[C@H]2C(=O)N[C@]2(C(=O)NS(=O)(=O)C3(C)CC3)C[C@H]2/C=C\CC[C@@H](C)C[C@H]1C)(C([2H])([2H])[2H])C(F)(F)F` [Compound 5055], the EC50 in experiment [1] (read-out: LE_1a (EC50, range)) was 4.82 to 103 nM; in experiment [2] (read-out: LE_1b (EC50, range)), less than 5.46 nM.

With `CCn1nc(O[C@@H]2C[C@H]3C(=O)N[C@]4(C(=O)NS(=O)(=O)C5(C)CC5)C[C@H]4/C=C\CC[C@H](C)C[C@@H](C)[C@H](NC(=O)O[C@@H]4C[C@@H]5C[C@@H]5C4)C(=O)N3C2)c2ccccc2c1=O` [Compound 5056, (1R,3r,5S)-bicyclo[3.1.0]hexan-3-yl((2R,6S,7R,9S,13aS,14aR,16aS,Z)-2-((3-ethyl-4-oxo-3,4-dihydrophthalazin-1-yl)oxy)-7,9-dimethyl-14a-(((1-methylcyclopropyl)sulfonyl)carbamoyl)-5,16-dioxo-1,2,3,5,6,7,8,9,10,11,13a,14,14a,15,16,16a-hexadecahydrocyclopropa[e]pyrrolo[1,2-a][1,4]diazacyclopentadecin-6-yl)carbamate], the EC50 in experiment [1] (read-out: LE_1a (EC50)) was 256 nM; in experiment [1] (read-out: LE_1a (EC50, range)), greater than 87.4 nM; in experiment [2] (read-out: LE_1b (EC50)) it was 61 nM; in experiment [2] (read-out: LE_1b (EC50, range)) it was 4.82 to 103 nM.

Turning to `CCn1nc(O[C@@H]2C[C@H]3C(=O)N[C@]4(C(=O)NS(=O)(=O)C5(C)CC5)C[C@H]4/C=C\CC[C@@H](C)C[C@@H](C)[C@H](NC(=O)O[C@@H]4C[C@@H]5C[C@@H]5C4)C(=O)N3C2)c2ccccc2c1=O` [Compound 5057, (1R,3r,5S)-bicyclo[3.1.0]hexan-3-yl((2R,6S,7R,9R,13aS,14aR,16aS,Z)-2-((3-ethyl-4-oxo-3,4-dihydrophthalazin-1-yl)oxy)-7,9-dimethyl-14a-(((1-methylcyclopropyl)sulfonyl)carbamoyl)-5,16-dioxo-1,2,3,5,6,7,8,9,10,11,13a,14,14a,15,16,16a-hexadecahydrocyclopropa[e]pyrrolo[1,2-a][1,4]diazacyclopentadecin-6-yl)carbamate], the EC50 in experiment [1] (read-out: LE_1a (EC50, range)) is less than 5.46 nM; in experiment [2] (read-out: LE_1b (EC50, range)), less than 5.46 nM.

For `CCn1nc(O[C@@H]2C[C@H]3C(=O)N[C@]4(C(=O)NS(=O)(=O)C5(C)CC5)C[C@H]4/C=C\CC[C@H](C)C[C@@H](C)[C@H](NC(=O)NC(C)(C)C)C(=O)N3C2)c2ccccc2c1=O` [Compound 5058, (2R,6S,7R,9S,13aS,14aR,16aS,Z)-6-(3-(tert-butyl)ureido)-2-((3-ethyl-4-oxo-3,4-dihydrophthalazin-1-yl)oxy)-7,9-dimethyl-N-((1-methylcyclopropyl)sulfonyl)-5,16-dioxo-1,2,3,5,6,7,8,9,10,11,13a,14,14a,15,16,16a-hexadecahydrocyclopropa[e]pyrrolo[1,2-a][1,4]diazacyclopentadecine-14a-carboxamide], the EC50 is greater than 87.4 nM in experiment [1] (read-out: LE_1a (EC50, range)) and greater than 87.4 nM in experiment [2] (read-out: LE_1b (EC50, range)).

On to `CCn1nc(O[C@@H]2C[C@H]3C(=O)N[C@]4(C(=O)NS(=O)(=O)C5(C)CC5)C[C@H]4/C=C\CC[C@@H](C)C[C@@H](C)[C@H](NC(=O)NC(C)(C)C)C(=O)N3C2)c2ccccc2c1=O` [Compound 5059, (2R,6S,7R,9R,13aS,14aR,16aS,Z)-6-(3-(tert-butyl)ureido)-2-((3-ethyl-4-oxo-3,4-dihydrophthalazin-1-yl)oxy)-7,9-dimethyl-N-((1-methylcyclopropyl)sulfonyl)-5,16-dioxo-1,2,3,5,6,7,8,9,10,11,13a,14,14a,15,16,16a-hexadecahydrocyclopropa[e]pyrrolo[1,2-a][1,4]diazacyclopentadecine-14a-carboxamide], for which the EC50 in experiment [1] (read-out: LE_1a (EC50, range)) was 4.82 to 103 nM; in experiment [2] (read-out: LE_1b (EC50, range)), 4.82 to 103 nM.
